Data published in ChEMBL document CHEMBL1126316, “Non-peptide fibrinogen receptor antagonists. 1. Discovery and design of exosite inhibitors” (J Med Chem, 1992).

Legend:
Integrin alpha-V/beta-3 [1] = molecular target: T1, Integrin alpha-V/beta-3 (Homo sapiens, UniProt P05106+P06756); assay: Inhibition of HUVEC attachment to human fibrinogen
Integrin alpha-V/beta-3 [2] = molecular target: T1, Integrin alpha-V/beta-3; assay: Inhibition of HUVEC attachment to human vitronectin
Integrin alpha-5/beta-1 = Integrin alpha-5/beta-1 (Homo sapiens, UniProt P05556+P08648); assay: Inhibition of HUVEC attachment to human fibronectin
Integrin alpha-5/beta-1, sequence (P05556 21-798 limits assumed): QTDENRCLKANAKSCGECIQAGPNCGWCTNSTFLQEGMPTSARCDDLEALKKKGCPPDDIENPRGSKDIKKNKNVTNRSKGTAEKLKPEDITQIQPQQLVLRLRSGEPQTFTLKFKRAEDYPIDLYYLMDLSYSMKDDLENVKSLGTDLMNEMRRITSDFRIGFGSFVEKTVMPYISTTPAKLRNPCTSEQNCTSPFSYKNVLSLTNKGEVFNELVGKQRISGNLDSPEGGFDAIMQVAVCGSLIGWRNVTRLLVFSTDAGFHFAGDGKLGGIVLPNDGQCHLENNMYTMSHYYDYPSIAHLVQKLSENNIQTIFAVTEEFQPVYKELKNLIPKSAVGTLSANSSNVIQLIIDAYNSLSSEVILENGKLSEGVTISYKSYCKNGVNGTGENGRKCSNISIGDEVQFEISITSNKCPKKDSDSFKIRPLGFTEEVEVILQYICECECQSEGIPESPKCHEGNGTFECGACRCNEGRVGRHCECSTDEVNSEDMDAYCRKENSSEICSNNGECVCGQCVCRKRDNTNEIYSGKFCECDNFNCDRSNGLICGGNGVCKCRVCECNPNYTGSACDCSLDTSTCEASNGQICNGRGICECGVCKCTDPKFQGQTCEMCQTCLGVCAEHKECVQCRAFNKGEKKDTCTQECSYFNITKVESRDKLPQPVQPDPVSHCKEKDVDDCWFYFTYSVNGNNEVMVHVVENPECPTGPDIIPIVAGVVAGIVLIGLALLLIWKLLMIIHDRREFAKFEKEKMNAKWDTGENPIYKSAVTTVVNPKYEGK
Integrin alpha-5/beta-1, sequence (P08648 42-894 limits assumed): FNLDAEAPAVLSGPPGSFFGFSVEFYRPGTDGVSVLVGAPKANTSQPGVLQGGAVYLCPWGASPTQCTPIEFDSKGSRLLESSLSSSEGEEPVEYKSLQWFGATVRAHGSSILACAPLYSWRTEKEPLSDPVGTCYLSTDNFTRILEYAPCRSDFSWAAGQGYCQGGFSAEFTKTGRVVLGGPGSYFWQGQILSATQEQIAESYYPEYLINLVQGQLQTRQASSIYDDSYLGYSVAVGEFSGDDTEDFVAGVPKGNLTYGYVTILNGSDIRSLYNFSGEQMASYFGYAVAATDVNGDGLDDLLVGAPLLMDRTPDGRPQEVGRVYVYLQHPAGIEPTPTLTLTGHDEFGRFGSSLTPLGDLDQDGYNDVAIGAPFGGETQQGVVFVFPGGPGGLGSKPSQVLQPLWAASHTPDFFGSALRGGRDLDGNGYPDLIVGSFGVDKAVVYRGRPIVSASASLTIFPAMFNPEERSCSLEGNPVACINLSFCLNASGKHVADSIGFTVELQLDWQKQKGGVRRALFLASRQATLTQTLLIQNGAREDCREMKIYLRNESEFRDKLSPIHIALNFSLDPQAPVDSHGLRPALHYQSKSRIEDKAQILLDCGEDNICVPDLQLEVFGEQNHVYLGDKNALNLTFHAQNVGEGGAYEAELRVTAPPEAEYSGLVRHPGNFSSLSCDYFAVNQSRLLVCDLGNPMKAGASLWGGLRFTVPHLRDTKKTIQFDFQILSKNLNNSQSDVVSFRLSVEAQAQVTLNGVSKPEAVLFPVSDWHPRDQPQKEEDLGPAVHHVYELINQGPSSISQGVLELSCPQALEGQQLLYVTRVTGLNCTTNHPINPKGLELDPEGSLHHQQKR
Integrin alpha-5/beta-1, sequence (P08648 895-1049 limits assumed): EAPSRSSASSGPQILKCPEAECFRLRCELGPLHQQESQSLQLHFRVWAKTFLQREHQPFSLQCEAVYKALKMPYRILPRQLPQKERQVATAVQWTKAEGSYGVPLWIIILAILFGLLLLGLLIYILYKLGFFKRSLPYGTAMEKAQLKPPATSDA

T1 sequence (P05106 27-788 limits assumed): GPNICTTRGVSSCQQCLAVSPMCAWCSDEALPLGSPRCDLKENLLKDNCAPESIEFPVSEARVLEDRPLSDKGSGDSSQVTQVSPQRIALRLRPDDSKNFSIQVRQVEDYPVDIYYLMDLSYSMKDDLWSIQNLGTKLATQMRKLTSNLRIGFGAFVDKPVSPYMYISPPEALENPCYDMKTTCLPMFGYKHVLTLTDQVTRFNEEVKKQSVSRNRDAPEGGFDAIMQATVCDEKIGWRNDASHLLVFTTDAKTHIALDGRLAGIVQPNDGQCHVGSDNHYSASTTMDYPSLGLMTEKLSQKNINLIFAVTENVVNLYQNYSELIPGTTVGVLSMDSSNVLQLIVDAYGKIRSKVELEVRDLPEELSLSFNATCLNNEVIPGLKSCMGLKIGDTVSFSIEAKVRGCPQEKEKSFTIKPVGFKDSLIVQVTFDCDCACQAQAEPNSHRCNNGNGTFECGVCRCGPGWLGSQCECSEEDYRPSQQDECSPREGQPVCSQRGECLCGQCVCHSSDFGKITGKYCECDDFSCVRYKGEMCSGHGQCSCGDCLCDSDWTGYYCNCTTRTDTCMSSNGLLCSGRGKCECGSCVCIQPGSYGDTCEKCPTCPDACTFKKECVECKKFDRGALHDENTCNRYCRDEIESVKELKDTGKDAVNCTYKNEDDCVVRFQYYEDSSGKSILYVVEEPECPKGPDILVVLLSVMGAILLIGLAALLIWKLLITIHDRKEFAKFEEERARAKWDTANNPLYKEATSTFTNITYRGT
T1 sequence (P06756 31-889 limits assumed): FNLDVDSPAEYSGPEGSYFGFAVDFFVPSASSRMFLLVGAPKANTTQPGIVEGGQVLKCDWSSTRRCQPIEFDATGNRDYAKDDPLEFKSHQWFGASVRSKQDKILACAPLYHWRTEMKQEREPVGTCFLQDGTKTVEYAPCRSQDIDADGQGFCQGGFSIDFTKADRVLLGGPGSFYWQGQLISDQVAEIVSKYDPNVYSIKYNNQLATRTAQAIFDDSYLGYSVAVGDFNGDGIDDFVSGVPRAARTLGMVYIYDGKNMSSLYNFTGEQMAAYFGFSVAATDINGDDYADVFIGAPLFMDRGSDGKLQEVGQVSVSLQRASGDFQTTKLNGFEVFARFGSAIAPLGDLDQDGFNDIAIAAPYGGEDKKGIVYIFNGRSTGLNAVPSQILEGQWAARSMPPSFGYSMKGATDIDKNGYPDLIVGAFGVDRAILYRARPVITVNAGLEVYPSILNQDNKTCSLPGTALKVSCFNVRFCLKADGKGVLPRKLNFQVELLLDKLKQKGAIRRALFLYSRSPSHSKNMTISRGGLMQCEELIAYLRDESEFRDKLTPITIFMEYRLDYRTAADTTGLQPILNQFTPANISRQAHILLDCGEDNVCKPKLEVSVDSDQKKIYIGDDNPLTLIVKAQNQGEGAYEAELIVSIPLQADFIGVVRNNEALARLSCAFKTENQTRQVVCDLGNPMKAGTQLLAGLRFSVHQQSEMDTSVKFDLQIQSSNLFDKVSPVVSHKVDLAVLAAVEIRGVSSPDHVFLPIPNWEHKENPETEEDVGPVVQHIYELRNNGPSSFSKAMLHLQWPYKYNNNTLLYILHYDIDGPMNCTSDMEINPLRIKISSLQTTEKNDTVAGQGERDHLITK
T1 sequence (P06756 891-1048 limits assumed): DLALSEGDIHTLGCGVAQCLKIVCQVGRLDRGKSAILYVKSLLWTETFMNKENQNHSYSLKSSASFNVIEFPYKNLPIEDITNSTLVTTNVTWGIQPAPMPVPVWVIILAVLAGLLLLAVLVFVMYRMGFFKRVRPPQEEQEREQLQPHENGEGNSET

IC50 (Integrin alpha-V/beta-3 [1]): 260 µM
IC50 (Integrin alpha-V/beta-3 [2]): 100 µM
IC50 (Integrin alpha-5/beta-1): > 300 µM
Structure (SMILES): CCCCS(=O)(=O)N[C@@H](Cc1ccc(OCCCCC2CCNCC2)cc1)C(=O)O [TIROFIBAN]
